# Measured values reported in patent publication US12378528B2, “Systems and methods for growth of intestinal cells in microfluidic devices” (EMULATE, INC., priority 2016, dated 2025).
# What was measured:
# [1] = test system: mitochondrial respiration in iFGEs; experiment: Seahorse mitochondrial stress test in iFGEs; format: cell-based, human
# Procedure: (§1) The Seahorse XF^e24 Extracellular Flux Analyzer (Seahorse Biosciences) was used to perform mitochondrial stress tests and obtain real-time measurements of oxygen consumption rate (OCR) in cells. iFGEs and iHTNS treated with or without EDCs were seeded in a 24-well Seahorse culture plate at a density of 10,000-15,000 cells/well. For analysis of OCR, cells were reconstituted in Seahorse base medium and were allowed to settle for 1 hour at 37° C. in non-CO2 incubator before measurements. Chemical reagents (Sigma) were used at final concentrations as follows: 1 μM Oligomycin—an ATP synthase inhibitor, 1 μM (FCCP) carbonyl cyanide 4-(trifluoromethoxy)phenylhydrazone—an uncoupling agent, and a mixture of 0.5 μM antimycin A—a cytochrome C reductase inhibitor and 0.5 μM rotenone—a complex I inhibitor. Results were normalized to protein concentration determined by BCA assay (Thermo Scientific).
# [2] = test system: mitochondrial respiration in iHTNs; experiment: Seahorse mitochondrial stress test in iHTNs; format: cell-based, human
# Procedure: as §1
# [3] = test system: human intestinal epithelial cells derived from IPSCs; experiment: Transepithelial electrical resistance (TEER) on microfluidic chip; format: cell-based; conditions: IFNgamma 10 ng/ml, basal administration, over time, n=4
# Procedure: (§2) Intestinal epithelium, derived from iPSCs, is seeded onto the microfluidic device followed by characterization of intestinal epithelial subtypes. Functional assays, including an examination of permeability via transepithelial resistance and dextran FITC efflux will be assessed either under basal conditions or in response to inflammatory cytokines such as interferon-gamma (IFNg) and/or tumor necrosis factor-alpha (TNFalpha). Also drug candidates that may modulate the various intestinal epithelial subtypes will be examined to assess if such subtypes can indeed be modulated. After establishing such assays, IPSCs from genetically defined inflammatory bowel disease (IBD) patients will be generated, differentiated into intestinal organoids, disassociated and subsequently seeded onto the microfluidic devices and the functional consequences of the genetic variations associated with IBD will be assessed.
# (§3) Human intestinal epithelial cells derived from IPSCs were treated with 10 ng/ml of IFNgamma. The basal administration of IFNg leads to a decrease in transepithelial resistance and an increase in the efflux of dextran FITC in human intestinal epithelial cells derived from IPSCs. Basically this means that the intestinal epithelium is more permeable in response to this cytokine.
# [4] = test system: human intestinal epithelial cells derived from IPSCs; experiment: FITC dextran permeability on microfluidic chip; format: cell-based; conditions: for permeability co-efficient of FITC dextran added to the apical channel / efflux of dextran FITC / accumulation in the basal layer: IFNgamma 10 ng/ml; for efflux of dextran FITC / accumulation in the basal layer: dextran added to apical channel
# Procedure: as §2, §3
# [5] = test system: STAT1 and IFNgamma responsive genes; experiment: STAT1 phosphorylation and gene expression in iPSC-derived intestinal epithelium on microfluidic device; format: cell-based, human; conditions: administration to the lower channel
# Procedure: In one embodiment, iPSCs were directed to form HIOs and were subsequently dissociated to a single cell suspension. These cells were then seeded into a small microfluidic device (SMD) which is composed of two chambers separated by a porous flexible membrane. See, FIG. 40.
# [6] = test system: Caco2 cells; experiment: Gene expression in Caco2 cells treated with IFNgamma; format: cell-based, human
Compound,effect on mitochondrial spare respiratory capacity [1],effect on mitochondrial spare respiratory capacity [2],transepithelial electrical resistance (TEER) [3],permeability co-efficient of FITC dextran added to the apical channel [4],efflux of dextran FITC / accumulation in the basal layer [4],further results
"Cc1cc(C(C)(C)C)c(O)c(C(C)(C)C)c1 [BHT, Butylated hydroxytoluene]",significant decrease,significant impairment,,,,
"O=C(O)C(F)(F)C(F)(F)C(F)(F)C(F)(F)C(F)(F)C(F)(F)C(F)(F)F [PFOA, Perfluorooctanoic acid]",did not show any effect,did not show any effect,,,,
IFNgamma: inflammatory cytokine interferon-gamma,,,loss of transepithelial electrical resistance,increase,increase,"transepithelial electrical resistance (TEER) ([3]; listed as IFNg): decrease; efflux of dextran FITC / accumulation in the basal layer ([4]; listed as INFgamma): accumulation in the basal layer; expression of IFNgamma responsive genes IDO1, GBP4 and/or GBP5 [5]: significant upregulation; expression of phospholipase A2 group 2A and Muc4 [5]: also upregulated; phosphorylation of STAT1 [5]: phosphorylation of STAT1; expression of genes associated with intestinal epithelial subtypes [6]: no corresponding upregulation"
TNFalpha,,,increased TEER over time comparable to controls,comparable,comparable,intestinal permeability ([4]; addition of TNFa): does not elicit any change
Tributyltin [TBT],,significant impairment,,,,
